In publication PMC12372887, “Mechanism and cellular actions of the potent AMPK inhibitor BAY-3827” (Science Advances, 2025):
Like-named read-outs stand apart in the source and are kept apart here.

Columns and labels:
HEK293 cells = experiment: RSK signaling immunoblot in HEK293 cells; type: cell-based, human
Protocol: HEK293 cells (Invitrogen, R75007) were seeded at a density of 500,000 cells per well in six-well cell culture plates (Corning Incorporated Costar #3516) in Dulbecco’s modified Eagle medium (DMEM) high-glucose + GlutaMAX Supplement, pyruvate (Thermo Fisher Scientific, catalog no. 31966-021) containing penicillin G (100 U/ml), streptomycin (100 μg/ml), and 10% (v/v) FBS. Once attached, the next day, the media were changed to serum-free and the cells were starved for 16 hours followed by compound treatment with BAY-3827, BI-D1870 (MedChemExpress, #HY-10510) ± 10 μM MK-2206 dihydrochloride (MedChemExpress, #HY-10358) with 30 min incubation at 37°C followed by coincubation with […] (MedChemExpress, #HY-18739) or vehicle for additional 30 min with final assay DMSO concentration of 0.13%. All cell lines used here were tested monthly for mycoplasma and tested negative.
Following compound treatment, the cells were washed with room temperature PBS and lysed on ice with the addition of lysis buffer [50 mM tris-HCl (pH 7.5), 150 mM NaCl, 1 mM EDTA, 1 mM EGTA, 0.27 M sucrose, 1% w/v Triton X-100, 20 mM glycerol-2 phosphate disodium, 50 mM NaF, and 5 mM Na4P2O7.10 H2O] containing proteases and phosphatase inhibitors [0.5 mM phenylmethylsulfonyl fluoride (PMSF), 1 mM benzamidine HCl, leupeptin (1 μg/ml), pepstatin A (1 μg/ml), 1 μM microcystin-LR, 1 mM Na3VO4, and 1 mM DTT]. Lysates were centrifuged at 10,000g, 4°C for 10 min, and protein concentration of the supernatant was determined with the Pierce Bradford Protein Assay Kit (Thermo Fisher Scientific, #23200) and read on the Hidex Plate Reader (software version 0.5.64.0). Samples were prepared in Laemmli sample buffer (tris 200 mM, 8% SDS, EDTA 2 mM, and 40% glycerol) supplemented with 10% DTT and boiled for 5 min at 100°C. Ten micrograms of protein per sample was run on a Criterion tris-glycine polyacrylamide gel (Bio-Rad, #5678095) and transferred to a nitrocellulose membrane. For cell signaling experiments in HEK293 cells, the samples were run on a Criterion TGX stain-free precast gel (Bio-Rad, catalog no. 5678085) with transfer to a polyvinylidene difluoride membrane performed in Bio-Rad Criterion blotter (#1704071) using tris-glycine transfer buffer (Bio-Rad, #1610734) following the manufacturer’s instructions. The membranes were probed at 4°C overnight in a 4% BSA TBS-T solution containing 0.02% sodium azide with the following antibodies where appropriate: Phospho-ACC (Ser^79) (1:1000, Cell Signaling Technology, #3661S), ACC (C83B10) (1:1000, Cell Signaling Technology, #3676S), phospho-Raptor (Ser^792) (1:1000, Cell Signaling Technology, #2083S), Raptor (24C12) (1:1000, Cell Signaling Technology, #2280S), GSK3αβ (1:2000, Sigma-Aldrich, #04-903), phospho-GSK3αβ (Ser^21/9) (D17D2) (1:1000, Cell Signaling Technology, #8566S), ERK1/2 (137F5) (1:1000, Cell Signaling Technology, #4695), phospho-ERK1/2 (Thr^202/Tyr^204) (D13.14.4E) (1:1000, Cell Signaling Technology, #4370), phospho-AMPKα (Thr^172) (40H9) (1:1000, Cell Signaling Technology, #2535S), AMPKα (1:1000, Cell Signaling Technology, #2532S), anti–glyceraldehyde-3-phosphate dehydrogenase antibody (1:5000, Cell Signaling Technology, #G8795), and vinculin (1:1000, Cell Signaling Technology, #13901). Membranes were scanned using the Odyssey Fc LiCor system (exposure time, 30 s) with densitometry analysis performed using LiCor Image Studio Lite normalizing to control loading protein. Figures were made using GraphPad Prism v10.

[1] = test system: pSer79-ACC1 in U2OS cells; experiment: HTRF assay of Ser79-ACC1 phosphorylation in U2OS cells; type: cell-based, human; settings: 10 μM
Protocol: (§1) Human osteosarcoma U2OS WT cells were obtained from John Rouse (MRC Protein Phosphorylation and Ubiquitylation Unit, University of Dundee) and were cultured in DMEM high glucose + GlutaMAX Supplement, pyruvate (Thermo Fisher Scientific, catalog no. 31966-021) containing penicillin G (100 U/ml), streptomycin (100 μg/ml), and 10% (v/v) FBS seeding with 50,000 cells per well in a 50-μl volume in culture 96-well cell culture plates (Corning Incorporated costar, #3599). The next day, the media were changed to 50 μl of serum-free media, and 50 μl of serum-free media containing BAY-3827 or BAY-974 was dispensed and left to incubate at 37°C for 30 min. […] HTRF assays using either phospho-Ser^79-ACC1 kit (Revvity, #64ACCPEG) or phospho-Thr^172-AMPK kit (Revvity, #64AMPKPEG) were performed in triplicate in HTRF 96-well low volume white plates (Revvity, #66PL96001) following manufacturer’s instructions. Sealed plates incubated overnight in darkness conditions were scanned at room temperature in Multimode Plate Reader EnVision (PerkinElmer) machine following HTRF setup recommendations for EnVision (Revvity), equipped with a top mirror LANCE/DELFIA single mirror (#412), a UV2 (TRF) 320 excitation filter (#111), emission filter APC 665 (#205), and second emission filter Europium 615 (#203), with a 2000-μs cycle and 60-μs delay, with the number of flashes set to 100 as well as for the 2nd detector. Results were viewed in EnVision Manager software (version 1.13.3009.1401) where 665/615 ratios were calculated, and data were normalized to control condition as %. All assay ratios between control lysate signal/nonspecific signal were greater than 2 as expected of a successful assay following the manufacturer’s instructions. Data were visualized in GraphPad Prism v10.

[2] = test system: pThr172-AMPKα in U2OS cells; experiment: HTRF assay of Thr172-AMPKα phosphorylation in U2OS cells; type: cell-based, human; settings: 10 μM
Protocol: as §1

[3] = test system: AMPKα1α2+/+ control primary hepatocytes; experiment: Lipogenesis assay ([14C]-acetate incorporation into fatty acids); type: cell-based, mouse
Protocol: (§2) Mouse hepatocytes were isolated by collagenase perfusion as previously described ([47]). Hepatocytes were seeded in medium Eagle-199 (MEM-199) (#41150, Thermo Fisher Scientific) containing penicillin G (100 U/ml), streptomycin (100 μg/ml), and 10% (v/v) fetal bovine serum (FBS). Hepatocytes were left for attachment (3 to 4 hours) and serum-starved overnight at 37°C with 5% CO2 in MEM-199 supplemented with penicillin G (100 U/ml), streptomycin (100 μg/ml), 10 nM insulin, and 100 nM dexamethasone. […] Cells were then harvested in 0.5 ml of phosphate-buffered saline (PBS), transferred into 1 ml of 40% KOH and 2 ml of methanol followed by 1-hour incubation at 80°C. Lipids were […] by acidifying the samples in 37% HCl and extracted with petroleum ether. Extracts were allowed to evaporate to dryness and then dissolved in Ultima Gold scintillation fluid for determination of [^14C]-acetate incorporation into lipids.

[4] = test system: AMPKα1α2−/− DKO primary hepatocytes; experiment: as above; type: cell-based, mouse
Protocol: as §2

AMPK [5] = test system: AMPK; set-up: method as in PMID 20439741; settings: cited from earlier work
RSK1 = test system: RSK1; set-up: method as in PMID 20439741; settings: cited from earlier work
RSK2 = test system: RSK2; set-up: method as in PMID 20439741; settings: cited from earlier work
AMPK [6] = test system: AMPK; set-up: method as in PMID 29695504; settings: 20 μM ATP; read-out: median inhibitory concentration (IC50); cited from earlier work
119 kinases = test system: 119 kinases; set-up: method as in PMID 21740966; settings: of 119 kinases, 1 μM; cited from earlier work

Q: Which results are given for `CC(C)CCN1c2nc(Nc3cc(F)c(O)c(F)c3)ncc2N(C)C(=O)C1C` (stereo not drawn) [BI-D1870]?
A: PMA-stimulated pGSK3αβ (surrogate of RSK activity) (HEK293 cells; 10 μM, in the presence of MK-2206 (10 μM)): inhibited to the same extent; ACC1 phosphorylation (HEK293 cells; serum-starved HEK293, 1 and 10 μM): no effect

Q: Which “basal pGSK3αβ” value (HEK293 cells; 10 μM) does the source give for `NC1(c2ccc(-c3nc4ccn5c(=O)[nH]nc5c4cc3-c3ccccc3)cc2)CCC1` [MK-2206] here?
A: reduced

Q: Which results are given for `O[C@@H]1CO[C@H]2[C@@H]1OC[C@H]2Oc1nc2nc(-c3ccc(-c4ccccc4)cc3)c(Cl)cc2[nH]1` [MK-8722]?
A: pSer79-ACC1 versus vehicle [1]: significant increase; pThr172-AMPK versus vehicle [2]: significant increase; suppression of lipogenesis ([3]; compound alone, 10 μM): > 80%; effect on lipogenesis [4]: no effect

Q: Which results are given for `Cc1nc(Nc2n[nH]c3c2CN(C(=O)N[C@H](CN(C)C)c2ccccc2)C3(C)C)c2sccc2n1` [PF-03758309]?
A: IC50 (AMPK [5]): 1 nM; IC50 (RSK1): 2 nM; IC50 (RSK2): 2 nM

Q: For `CCCCCCCCCCCCCC(=O)O[C@@H]1[C@@H](C)[C@@]2(O)[C@@H](C=C(CO)C[C@]3(O)C(=O)C(C)=C[C@@H]23)[C@@H]2C(C)(C)[C@]12OC(C)=O` [PMA, phorbol 12-myristate 13-acetate], which “pERK1/2 and pGSK3αβ levels” value (HEK293 cells; 0.1 μM, MK-2206–treated conditions) is on record?
A: robustly increased

Q: Which IC50 (AMPK [6]) does the source give for `CNC(=O)c1ccccc1Oc1nc(Nc2cc(OC)c(OC)c(OC)c2)ncc1Br` [SBI-0206965] here?
A: 160 nM

Q: Which “restoration of MK-8722–inhibited lipogenesis” value ([3]; 25 μM, + MK-8722 (10 μM)) does the source give for `c1cc(-c2cnn3cc(-c4ccc(OCCN5CCCCC5)cc4)cnc23)ccn1` [compound C] here?
A: 10%

Q: And the “number of kinases inhibited more potently than AMPK” value (119 kinases)?
A: 34
